Results as given in ChEMBL document CHEMBL1134028, “1,2,5-Thiadiazole derivatives are potent and selective ligands at human 5-HT1A receptors” (Bioorg Med Chem Lett, 2001).

Columns and labels:
[1] = target: T1, 5-hydroxytryptamine receptor 1A (Homo sapiens) (UniProt P08908); assay: Ability to displace [3H]-8-OH-DPAT from CHO cells stably transfected with human 5-hydroxytryptamine 1A receptor at a concentration of 1 uM; type: cell-based
T1 sequence (whole entry): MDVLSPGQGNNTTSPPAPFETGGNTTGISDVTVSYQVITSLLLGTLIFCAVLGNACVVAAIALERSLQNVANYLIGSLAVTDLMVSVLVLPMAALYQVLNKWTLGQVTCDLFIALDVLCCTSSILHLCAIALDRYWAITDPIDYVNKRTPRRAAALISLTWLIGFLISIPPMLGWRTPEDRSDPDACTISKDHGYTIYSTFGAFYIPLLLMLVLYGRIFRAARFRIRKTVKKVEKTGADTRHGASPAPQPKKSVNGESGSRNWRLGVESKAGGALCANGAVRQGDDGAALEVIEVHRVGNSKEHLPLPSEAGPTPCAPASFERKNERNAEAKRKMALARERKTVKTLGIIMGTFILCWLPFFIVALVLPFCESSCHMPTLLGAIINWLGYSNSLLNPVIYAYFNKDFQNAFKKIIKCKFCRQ

CHO [2] = assay: Inhibitory activity determined by the compound ability to reverse the forskolin-stimulated turnover of cAMP in CHO cells; type: functional, cell-based; conditions: Cricetulus griseus
[3] = target: T2, 5-hydroxytryptamine receptor 1A (Homo sapiens, UniProt P08908); assay: Ability to displace [3H]8-OH-DPAT from CHO cells stably transfected with human 5-hydroxytryptamine 1A receptor; type: cell-based
T2 sequence (P08908 whole entry): T1 sequence (whole entry)

CHO [4] = assay: Intrinsic activity determined by the compound ability to reverse the forskolin-stimulated turnover of cAMP in CHO cells; type: functional; conditions: Cricetulus griseus
D(2) dopamine receptor = D(2) dopamine receptor (Rattus norvegicus, UniProt P61169); assay: Percent inhibition towards dopamine D2 receptor
Sequence of D(2) dopamine receptor (P61169 whole entry): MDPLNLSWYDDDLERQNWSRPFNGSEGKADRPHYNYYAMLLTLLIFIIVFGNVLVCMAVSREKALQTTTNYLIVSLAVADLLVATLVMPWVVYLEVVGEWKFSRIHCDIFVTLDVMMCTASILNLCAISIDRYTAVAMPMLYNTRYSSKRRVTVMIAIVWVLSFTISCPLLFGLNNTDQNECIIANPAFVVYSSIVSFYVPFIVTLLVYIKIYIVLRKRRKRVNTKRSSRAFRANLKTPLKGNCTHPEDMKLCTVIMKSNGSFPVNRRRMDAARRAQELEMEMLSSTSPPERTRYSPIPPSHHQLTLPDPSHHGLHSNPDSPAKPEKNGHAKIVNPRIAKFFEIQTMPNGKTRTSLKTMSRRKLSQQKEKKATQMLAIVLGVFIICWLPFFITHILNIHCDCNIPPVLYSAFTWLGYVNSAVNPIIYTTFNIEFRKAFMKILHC

D(3) dopamine receptor = D(3) dopamine receptor (Homo sapiens, UniProt P35462); assay: Percent inhibition towards dopamine D3 receptor
Sequence of D(3) dopamine receptor (P35462 whole entry): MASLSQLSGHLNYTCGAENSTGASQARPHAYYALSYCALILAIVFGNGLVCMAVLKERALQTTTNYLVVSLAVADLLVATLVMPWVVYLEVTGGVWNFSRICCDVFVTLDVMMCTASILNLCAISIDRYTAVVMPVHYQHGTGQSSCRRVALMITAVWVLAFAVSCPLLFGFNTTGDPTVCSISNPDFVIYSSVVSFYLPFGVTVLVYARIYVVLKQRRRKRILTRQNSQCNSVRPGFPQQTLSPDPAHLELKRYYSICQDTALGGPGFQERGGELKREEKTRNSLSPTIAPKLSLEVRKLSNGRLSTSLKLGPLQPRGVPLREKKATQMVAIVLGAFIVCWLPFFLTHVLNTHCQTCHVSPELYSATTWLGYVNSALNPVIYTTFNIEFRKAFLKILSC

D(4) dopamine receptor = target: T3, D(4) dopamine receptor (Homo sapiens, UniProt P21917); assay: Percent inhibition towards dopamine D4 receptor
T3 sequence (P21917 whole entry): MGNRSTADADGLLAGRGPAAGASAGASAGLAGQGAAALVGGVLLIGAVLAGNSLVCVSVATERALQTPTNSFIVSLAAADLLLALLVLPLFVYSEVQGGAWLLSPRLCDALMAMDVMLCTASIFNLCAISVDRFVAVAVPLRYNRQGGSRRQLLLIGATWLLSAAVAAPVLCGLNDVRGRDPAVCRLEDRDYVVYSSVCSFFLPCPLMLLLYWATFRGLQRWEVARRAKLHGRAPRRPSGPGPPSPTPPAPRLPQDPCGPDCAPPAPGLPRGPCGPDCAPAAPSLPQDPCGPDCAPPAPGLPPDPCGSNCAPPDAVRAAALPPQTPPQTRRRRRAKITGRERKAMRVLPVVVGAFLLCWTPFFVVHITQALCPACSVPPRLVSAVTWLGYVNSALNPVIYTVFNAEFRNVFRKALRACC

[5] = target: Adrenergic receptor alpha-1 (Rattus norvegicus) (UniProt P15823+P23944+P43140); assay: Compound was tested for percent inhibition at Alpha-1 adrenergic receptor in rat at 100 nM concentration
CHO [6] = assay: Effective concentration for intrinsic activity determined by the compound ability to reverse the forskolin-stimulated turnover of cAMP in CHO cells; conditions: Cricetulus griseus
[7] = target: D(2) dopamine receptor (Rattus norvegicus) (UniProt P61169); assay: Percent inhibition towards dopamine D2 receptor at 100 nM concentration
Sequence of D(2) dopamine receptor (Rattus norvegicus) (P61169 whole entry): as the sequence (P61169 whole entry) above

Row | Ki [3] [nM] | Structure (SMILES) | IC50 (CHO [2]) [nM] | Emax (CHO [4]) [%] | inhibition [5] [%] | also measured
1 | 9.9 | COc1nsnc1N1CCN(C[C@@H](Cc2ccccc2)N(C)C(=O)c2ccccc2)CC1 | 6.4 | 0 | 15 | –
2 | 1.5 | COc1nsnc1N1CCN(C[C@@H](Cc2ccccc2)N(C)C(=O)C2CCCCC2)CC1 | 72.7 | – | 0 | inhibition [7]: 11%

Second part, the compound before the results:

Row | Structure (SMILES) | Ki [3] [nM] | IC50 (CHO [2]) [nM] | Emax (CHO [4]) [%] | inhibition [5] [%] | also measured
3 | COc1nsnc1N1CCN(C[C@@H](Cc2ccccc2)N(C)C(=O)N2CCOCC2)CC1 | – | – | – | – | inhibition [1]: 46%
4 | COc1nsnc1N1CCN(C[C@@H](Cc2cccnc2)NC(=O)C2(C)CCCCC2)CC1 | 3 | 113 | 0 | – | IC50 (D(2) dopamine receptor): 3520 nM; IC50 (D(3) dopamine receptor): 489 nM; IC50 (D(4) dopamine receptor): 1100 nM
5 | O=C(N[C@@H](Cc1ccccc1)CN1CCN(c2nsnc2Cl)CC1)C1CCCCC1 | 0.8 | – | 93 | 17 | EC50 (CHO [6]): 4.6 nM
6 | O=C(N[C@@H](Cc1ccccc1)CN1CCN(c2nsnc2Cl)CC1)c1ccccn1 | – | – | – | – | inhibition [1]: 47%
7 | CN(C(=O)C1CCCCC1)[C@H](Cc1ccccc1)CN1CCN(c2nsnc2Cl)CC1 | – | 49.3 | – | 0 | –
